For the experiment, the system named is antibody core fucosylation. The experiment in a line: Inhibition of antibody core fucosylation by fucose analogs. The experiment is classed as cell-based. An excerpt:
Methods of determining whether a fucose analog is capable of having an effect on antibody core fucosylation is provided in WO 2012/019165.

[1] abbreviates: Table 2, 50 μM analog, read-out: Inhibition at 50 μM.
Setting [2] is: Table 1, 50 μM analog, read-out: Inhibition at 50 μM.

Read-outs that look alike come from different tables or passages of the source. Where only a bound is given, the exact number is not on record here.

The term inhibition denotes the share of the control response that was lost under treatment. Broadly, the Inhibition is the change of the read-out against control, counted positive when it falls. As to 2-deoxy-2-fluorofucose diacetate, the “inhibition at 50 µM” value (Table 2, 50 μM analog) is above 80%. For the same molecule, under “Table 2, 1 mM analog”, the “Inhibition at 1 mM” value is on record as above 80%.
Take 2-deoxy-2-fluorofucose peracetate: the “inhibition at 50 µM” value (Table 2, 50 μM analog) was above 80%. The “Inhibition at 1 mM” value (Table 2, 1 mM analog) is on record as above 80%.
With 5-Benzyloxy fucose peracetate, under “Table 2, 50 μM analog”, the “inhibition at 50 µM” value is given as 0%. The “Inhibition at 1 mM” value (Table 2, 1 mM analog) worked out at 75%.
Consider `CC(=O)OC1C(C)OC(F)C(F)C1OC(C)=O` (stereo not drawn) [1,2-difluoro-1,2-didexoy fucose peracetate], for which, under “Table 2, 50 μM analog”, the “inhibition at 50 µM” value is above 80%. In addition, where the note is “Table 2, 1 mM analog”, the “Inhibition at 1 mM” value was above 80%.
In the case of `C#C[C@H](OC(C)=O)[C@H]1OC(OC)[C@@H](OC(C)=O)[C@@H]1OC(C)=O` (stereo partly drawn) [1-methyl-2,3,4-triacetyl alkynyl fucose], for the setting “Table 1, 50 μM analog”, the “inhibition at 50 µM” value is reported as 68%. Besides, the “Inhibition at 1 mM” value (Table 1, 1 mM analog) is on record as above 80%.
On to `CC(=O)OC1O[C@@H](C)[C@@H](OC(C)=O)[C@@H](OC(C)=O)C1(F)F` (stereo partly drawn) [2-deoxy-2,2-difluorofucopyranose triacetate (beta)], for which the “inhibition at 50 µM” value (Table 2, 50 μM analog) stood at 0%. In addition, under “Table 2, 1 mM analog”, the “Inhibition at 1 mM” value was found to be 75%.
In the case of `CC(=O)OC1O[C@@H](C)[C@@H](OC(C)=O)[C@@H](OC(C)=O)C1(F)F` (stereo partly drawn) [2-deoxy-2,2-difluorofucopyranose triacetate], the inhibition at 50 µM under setting [1] was 0%. For the same molecule, the inhibition at 1000 µM (Table 2, 1 mM analog) was determined as 64%.
Regarding `CC(=O)OC(C#N)[C@H]1OC(OC(C)=O)[C@@H](OC(C)=O)[C@@H]1OC(C)=O` (stereo partly drawn) [5-cyanoarabinofuranose tetraacetate], under setting [2], the inhibition at 50 µM lay in the range of 5 to 10%.
The same measure, in the same setting: with `CC(=O)OC1OC(C#N)[C@@H](OC(C)=O)[C@@H](OC(C)=O)[C@@H]1OC(C)=O` (stereo partly drawn) [5-cyanoarabinopyranose tetraacetate] the figure was 20%.
In the case of `CC(=O)OC1O[C@@H]([C@]2(C)CO2)[C@@H](OC(C)=O)[C@@H](OC(C)=O)[C@@H]1OC(C)=O` (stereo partly drawn) [5-methyloxiran-arabinose tetraacetate, (3S,4R,5S,6R)-6-((S)-2-methyloxiran-2-yl)-tetrahydro-2H-pyran-2,3,4,5-tetrayl tetraacetate], the inhibition at 50 µM under setting [2] was around 0%. Also, the inhibition at 1000 µM (Table 1, 1 mM analog) fell in the range of 35 to 40%.
For `CC#CC(OC(C)=O)[C@@H](OC(C)=O)[C@@H](OC(C)=O)[C@@H](C=O)OC(C)=O` (stereo partly drawn) [5-propynyl fucose tetraacetate, 5-propynylarabinose tetraacetate], in that order: 50% and above 80%.
Regarding `C=CC1OC(OC(C)=O)C(OC(C)=O)C(OC(C)=O)C1OC(C)=O` (stereo not drawn) [5-vinyl fucose tetraacetate, 5-ethylenylarabinose tetraacetate], the “inhibition at 50 µM” value (Table 1, 50 μM analog) is reported as around 0%. Moreover, the “Inhibition at 1 mM” value (Table 1, 1 mM analog) is around 4%.
As for `CC(=O)O[C@H]([C@H](OC(C)=O)[C@@H](OC(C)=O)C(F)F)[C@@H](C=O)OC(C)=O` [6,6-difluorofucose tetraacetate], under setting [1], the inhibition at 50 µM was above 80%. The inhibition at 1000 µM (Table 2, 1 mM analog) was above 80%.
For the molecule `CC(=O)O[C@H]([C@H](OC(C)=O)[C@H](CBr)OC(C)=O)[C@@H](C=O)OC(C)=O` [6-bromo-fucose tetraacetate, 6-bromofucose tetraacetate], the inhibition at 50 µM under setting [2] turned out to be 50%. Under “Table 1, 1 mM analog”, 1000 µM produced 80% inhibition.
On to `CC(=O)O[C@H]([C@H](OC(C)=O)[C@H](CCl)OC(C)=O)[C@@H](C=O)OC(C)=O` [6-chloro-fucose tetraacetate, 6-chlorofucose tetraacetate], for which the inhibition at 50 µM under setting [2] is 20%. The same molecule had an inhibition at 1000 µM (Table 1, 1 mM analog) of 20 to 30%.
`CC(=O)O[C@H]([C@H](OC(C)=O)[C@H](CC#N)OC(C)=O)[C@@H](C=O)OC(C)=O` [6-cyano fucose tetraacetate, 6-cyanofucose tetraacetate]: the inhibition at 50 µM under setting [2] is 30%. Further, the inhibition at 1000 µM (Table 1, 1 mM analog) is above 80%.
Regarding `CC(=O)O[C@H]([C@H](OC(C)=O)[C@H](CI)OC(C)=O)[C@@H](C=O)OC(C)=O` [6-iodo-fucose tetraacetate, 6-iodofucose tetraacetate], the inhibition at 50 µM under setting [2] is 3%. Where the note is “Table 1, 1 mM analog”, this molecule returned an inhibition at 1000 µM of 30%.
As for `CC(=O)OC1CC(OC(C)=O)C(OC(C)=O)C(C)O1` (stereo not drawn) [6-methyl-tetrahydro-2H-pyran-2,4,5-triyl triacetate], the inhibition at 50 µM under setting [1] was 0%. Under “Table 2, 1 mM analog”, this molecule showed an inhibition at 1000 µM of 36%.
Turning to `C#CC1OC(OC(=O)C(C)(C)C)C(OC(=O)C(C)(C)C)C(OC(=O)C(C)(C)C)C1O` (stereo not drawn) [Alkynyl fucose 1,2,3-(trimethylacetate), 5-ethynylarabinose 1,2,3-(trimethylacetate)], under “Table 1, 50 μM analog”, the “inhibition at 50 µM” value is listed as around 0%.
Still for that read-out and setting: with `C#CC1OC(OC(=O)C(C)(C)C)C(O)C(OC(=O)C(C)(C)C)C1O` (stereo not drawn) [Alkynyl fucose di(trimethylacetate), 5-ethynylarabinose 1,3-(trimethylacetate)] the figure was above 80%.
In the case of `C#CC(OC(C)=O)[C@@H](OC(C)=O)[C@@H](OC(C)=O)[C@@H](C=O)OC(C)=O` (stereo partly drawn) [Alkynyl fucose peracetate, 5-ethynylarabinose tetraacetate], the inhibition at 50 µM under setting [2] was above 80%. Under “Table 1, 1 mM analog”, the inhibition at 1000 µM is above 80%.
With `C#C[C@@H]1OC(OC(=O)C(C)C)[C@@H](OC(=O)C(C)C)[C@H](OC(=O)C(C)C)[C@@H]1OC(=O)C(C)C` (stereo partly drawn) [Alkynyl fucose perisobutanoate], under “Table 1, 50 μM analog”, the “inhibition at 50 µM” value is recorded as above 80%. In addition, the “Inhibition at 1 mM” value (Table 1, 1 mM analog) is above 80%.
Consider `C#C[C@H]1OC(OC(=O)c2ccncc2)[C@@H](OC(=O)c2ccncc2)[C@H](OC(=O)c2ccncc2)[C@@H]1OC(=O)c1ccncc1` (stereo partly drawn) [Alkynyl fucose perisonicotinate], for which the “inhibition at 50 µM” value (Table 1, 50 μM analog) is reported as above 80%. Further, the “Inhibition at 1 mM” value (Table 1, 1 mM analog) is above 80%.
On to `C#CC1OC(OC(=O)c2cccnc2)C(OC(=O)c2cccnc2)C(OC(=O)c2cccnc2)C1OC(=O)c1cccnc1` (stereo not drawn) [Alkynyl fucose pernicotinate], for which the “inhibition at 50 µM” value (Table 1, 50 μM analog) is listed as above 80%. Moreover, the “Inhibition at 1 mM” value (Table 1, 1 mM analog) is listed as above 80%.
In the case of `C#CC(OC(=O)CCCCC)[C@@H](OC(=O)CCCCC)[C@@H](OC(=O)CCCCC)[C@@H](C=O)OC(=O)CCCCC` (stereo partly drawn) [Alkynyl fucose tetra-n-hexanoate, 5-ethynylarabinose tetrahexanoate], the inhibition at 50 µM under setting [2] was above 80%. Moreover, the inhibition at 1000 µM (Table 1, 1 mM analog) is above 80%.
Consider `C#C[C@@H]1OC(OC(=O)CC)[C@@H](OC(=O)CC)[C@H](OC(=O)CC)[C@@H]1OC(=O)CC` (stereo partly drawn) [Alkynyl fucose tetrapropanonate, 5-ethynylarabinose tetrapropropanoate], for which the “inhibition at 50 µM” value (Table 1, 50 μM analog) is given as above 80%. Further, the “Inhibition at 1 mM” value (Table 1, 1 mM analog) is recorded as above 80%.
As to `C#CC(O)[C@@H](O)[C@@H](O)[C@H](O)C=O` (stereo partly drawn) [Alkynyl fucose, 5-ethynylarabinose], the inhibition at 50 µM under setting [2] is above 80%.
As for `C#CC[C@@H]1OC(OC(C)=O)[C@@H](OC(C)=O)[C@H](OC(C)=O)[C@@H]1OC(C)=O` (stereo partly drawn) [propargyl fucose tetraacetate, (3S,4R,5R,6S)-6-(prop-2-ynyl)-tetrahydro-2H-pyran-2,3,4,5-tetrayl tetraacetate], the inhibition at 50 µM under setting [2] was around 10%. Under “Table 1, 1 mM analog”, this molecule had an inhibition at 1000 µM of 10 to 20%.

(Values after patent US10350228B2, “Treatment of sickle cell disease and inflammatory conditions” (Seattle Genetics, Inc., priority 2012, dated 2019).)
